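Test compounds were applied to cells in 96-well plates for 48 hours at 5 doses. GI50: concentration for 50% inhibition of growth. At the TGI there is no net growth.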

For the first assay, the system named is MOLT-4 leukemia. Nature of the assay: inhibition of tumour cell growth, NCI panel, 48 h.
With `CCc1c(Oc2ccc(C(C)=O)cc2)c2ccccc2[nH]c1=O`, the GI50 was 28 µM and the TGI is over 100 µM.
`Cc1nn(CN2CCN(C)CC2)c(=S)n1/N=C/c1cccc2ccccc12`: the GI50 is 19.1 µM and the TGI was determined as 41.5 µM.
Turning to `Cc1ccc(CS/C(=C\c2ccc([N+](=O)[O-])cc2)C(=O)c2ccc(F)cc2)cc1`, the GI50 was 3.35 µM and the TGI is over 100 µM.
In the case of `CN1CCN(Cc2ccc(NC(=O)c3cncc(C#Cc4cnc(N)c5ccc(C#N)cc45)c3)cc2C(F)(F)F)CC1`, the GI50 was 0.028 µM and the TGI came out at 1.4 µM.
`CC(=O)Nc1ccccc1Sc1ccccc1` returned a TGI of over 100 µM.
The compound `COC(=O)C[C@H]1CCC2(OCCO2)[C@]1(C)C(=O)OC` registered a TGI of over 100 µM.
With `O=C(O)Cn1ccc(=O)c2ccc([N+](=O)[O-])cc21`, the TGI is over 100 µM.
Still for that read-out and setting: in the case of `CCCCCCCCCC[C@@H](O)[C@@H]1CC[C@H]([C@H]2CC[C@@H]([C@@H](O)CCCCCCCCCC[C@H]3CC(CC(C)=O)C(=O)O3)O2)O1` (stereo partly specified) it was 18.8 µM.
Turning to `C=C(CN1CCc2ccccc2C1)c1ccc(C(=O)Nc2cnccn2)cc1`, the GI50 was 5.82 µM and the TGI is over 100 µM.
In turn, `CCOc1ccc2c(c1)[n+]([O-])c(S(=O)(=O)c1ccc(C)cc1)c(N)[n+]2[O-]` showed a TGI of over 100 µM.
As for `O=C1c2cccc(NCCN=Cc3cc(O)ccc3O)c2C(=O)c2c(NCCN=Cc3cc(O)ccc3O)cccc21`, the GI50 is 0.319 µM and the TGI was found to be 1.46 µM.
On to `COc1ccc(CNc2cc(OC)c(OC)c(OC)c2)cc1`, for which the TGI was over 77.8 µM.
Still for that read-out and setting: in the case of `O=C1NNC=Nc2ccc(cc2)S(=O)(=O)c2ccc(cc2)N=CNNC1=O` it was over 100 µM.
With `COc1cc2c3c(n(C)c(=O)c2cc1OC)-c1cc2c(cc1/C3=C\CCCN1C(=O)c3ccccc3C1=O)OCO2`, the GI50 is 1.18 µM and the TGI is 5.17 µM.
As for `CCCCCCCCCCCC(=O)CC(=O)c1c(O)cccc1O`, the TGI was found to be 41.9 µM.
The compound `CN(C(=O)C12C3C4C1C1C2C3C41C(=O)C(C)(C)C)C(C)(C)C` (stereo unspecified) displayed a TGI of over 100 µM.
In the case of `COc1cc(/C=C/c2cc(/C=C/c3ccc(O)c(OC)c3)n(-c3ccccc3)n2)ccc1O`, the GI50 was 0.347 µM and the TGI is over 100 µM.
As to `O=C1CNCCCN2CCN(CCCNCC(=O)Nc3ccc(cc3)S(=O)(=O)c3ccc(cc3)NC(=O)CNCCCN3CCN(CCCNCC(=O)Nc4ccc(cc4)S(=O)(=O)c4ccc(cc4)N1)CC3)CC2`, the TGI is over 51 µM.
For `Cc1ccc(-c2c3c([nH]c(=O)c2C#N)-c2cc(F)ccc2OC3)cc1`, the GI50 was 97.5 µM and the TGI was over 100 µM.

Another assay concerns NCI-H522 lung. Nature of the assay: inhibition of tumour cell growth, NCI panel, 48 h.
On to `CCc1c(Oc2ccc(C(C)=O)cc2)c2ccccc2[nH]c1=O`, for which the GI50 was 14.1 µM and the TGI is over 68.3 µM.
With `Cc1nn(CN2CCN(C)CC2)c(=S)n1/N=C/c1cccc2ccccc12`, the GI50 was 19 µM and the TGI was found to be 39.8 µM.
Turning to `CN1CCN(Cc2ccc(NC(=O)c3cncc(C#Cc4cnc(N)c5ccc(C#N)cc45)c3)cc2C(F)(F)F)CC1`, the GI50 was 0.088 µM and the TGI was determined as 1.69 µM.
The compound `CC(=O)Nc1ccccc1Sc1ccccc1` displayed a TGI of over 100 µM.
`COC(=O)C[C@H]1CCC2(OCCO2)[C@]1(C)C(=O)OC` returned a TGI of over 100 µM.
Still for that read-out and setting: then `O=C(O)Cn1ccc(=O)c2ccc([N+](=O)[O-])cc21`, with over 100 µM; and `CCCCCCCCCC[C@@H](O)[C@@H]1CC[C@H]([C@H]2CC[C@@H]([C@@H](O)CCCCCCCCCC[C@H]3CC(CC(C)=O)C(=O)O3)O2)O1` (stereo partly specified), with 13.2 µM.
For the compound `C=C(CN1CCc2ccccc2C1)c1ccc(C(=O)Nc2cnccn2)cc1`, the GI50 is 18.2 µM and the TGI amounted to 42.5 µM.
Consider `CCOc1ccc2c(c1)[n+]([O-])c(S(=O)(=O)c1ccc(C)cc1)c(N)[n+]2[O-]`, for which the TGI was over 100 µM.
Take `O=C1c2cccc(NCCN=Cc3cc(O)ccc3O)c2C(=O)c2c(NCCN=Cc3cc(O)ccc3O)cccc21`: the GI50 was 1.33 µM and the TGI worked out at 3.24 µM.
`COc1ccc(CNc2cc(OC)c(OC)c(OC)c2)cc1` had a TGI of 31 µM.
Consider `CSc1cc(N=Nc2nc3ccccc3s2)c2ccccc2c1O`, for which the GI50 is 1.82 µM and the TGI stood at 13.1 µM.
The compound `O=C1NNC=Nc2ccc(cc2)S(=O)(=O)c2ccc(cc2)N=CNNC1=O` yielded a TGI of over 100 µM.
As for `CCCCCCCCCCCC(=O)CC(=O)c1c(O)cccc1O`, the TGI came out at 65.3 µM.
The compound `CN(C(=O)C12C3C4C1C1C2C3C41C(=O)C(C)(C)C)C(C)(C)C` (stereo unspecified) gave a TGI of over 100 µM.
`Cn1cc(-c2cnc3ccc(NC(=O)Nc4ccc(F)c(Br)c4)cc3n2)cn1`: the GI50 is 1.71 µM and the TGI was found to be 4.75 µM.
As to `O=C1CNCCCN2CCN(CCCNCC(=O)Nc3ccc(cc3)S(=O)(=O)c3ccc(cc3)NC(=O)CNCCCN3CCN(CCCNCC(=O)Nc4ccc(cc4)S(=O)(=O)c4ccc(cc4)N1)CC3)CC2`, the TGI was determined as 53.8 µM.
On to `Cc1ccc(-c2c3c([nH]c(=O)c2C#N)-c2cc(F)ccc2OC3)cc1`, for which the GI50 was 19 µM and the TGI worked out at 59.2 µM.

Another assay relates to OVCAR-4 ovarian. Nature of the assay: inhibition of tumour cell growth, NCI panel, 48 h.
For the compound `CCc1c(Oc2ccc(C(C)=O)cc2)c2ccccc2[nH]c1=O`, the GI50 is 70 µM and the TGI was over 100 µM.
Consider `Cc1nn(CN2CCN(C)CC2)c(=S)n1/N=C/c1cccc2ccccc12`, for which the GI50 is 2.11 µM and the TGI is 19.4 µM.
On to `Cc1ccc(CS/C(=C\c2ccc([N+](=O)[O-])cc2)C(=O)c2ccc(F)cc2)cc1`, for which the GI50 is 3.04 µM and the TGI was found to be 13.3 µM.
With `CC(=O)Nc1ccccc1Sc1ccccc1`, the TGI was over 100 µM.
Compound `COC(=O)C[C@H]1CCC2(OCCO2)[C@]1(C)C(=O)OC` showed a TGI of over 100 µM.
In the case of `CCCCCCCCCC[C@@H](O)[C@@H]1CC[C@H]([C@H]2CC[C@@H]([C@@H](O)CCCCCCCCCC[C@H]3CC(CC(C)=O)C(=O)O3)O2)O1` (stereo partly specified), the TGI worked out at 21.7 µM.
Turning to `C=C(CN1CCc2ccccc2C1)c1ccc(C(=O)Nc2cnccn2)cc1`, the GI50 is 99.4 µM and the TGI was over 100 µM.
The compound `CCOc1ccc2c(c1)[n+]([O-])c(S(=O)(=O)c1ccc(C)cc1)c(N)[n+]2[O-]` displayed a TGI of over 100 µM.
